Key:
Type in all cases: biochemical
VGLUT2 [1] = biological target: T1, VGLUT2 (Rattus norvegicus, UniProt Q9JI12); test: Val-evoked [3H]L-glutamate uptake by proteoliposomes, […] min; details: 10 mM Cl-, 100 uM L-glutamate, pH 7.0, 27 C
T1 sequence (Q9JI12 1-582): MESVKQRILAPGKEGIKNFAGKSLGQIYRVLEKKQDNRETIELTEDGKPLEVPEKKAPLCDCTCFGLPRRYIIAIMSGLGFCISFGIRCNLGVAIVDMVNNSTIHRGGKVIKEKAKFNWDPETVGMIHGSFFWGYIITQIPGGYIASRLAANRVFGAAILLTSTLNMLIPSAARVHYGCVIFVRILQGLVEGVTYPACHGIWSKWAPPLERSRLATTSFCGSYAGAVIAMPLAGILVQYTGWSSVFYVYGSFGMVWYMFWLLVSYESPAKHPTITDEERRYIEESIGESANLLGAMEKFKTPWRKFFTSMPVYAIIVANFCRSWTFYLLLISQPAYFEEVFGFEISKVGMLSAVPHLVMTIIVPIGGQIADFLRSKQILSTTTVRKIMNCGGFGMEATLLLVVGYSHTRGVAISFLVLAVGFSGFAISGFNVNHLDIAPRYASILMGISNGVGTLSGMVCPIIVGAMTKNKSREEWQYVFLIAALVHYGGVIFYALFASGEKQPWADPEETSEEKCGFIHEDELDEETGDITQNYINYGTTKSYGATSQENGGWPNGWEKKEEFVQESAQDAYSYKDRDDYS

VNUT = biological target: T2, VNUT (Homo sapiens, UniProt Q9BYT1); test: Val-evoked […]ATP uptake by proteoliposomes; details: 10 mM Cl-, 0.1 mM ATP, pH 7.0, 27 C; prevented by high Cl-; reversible
T2 sequence (Q9BYT1 1-436): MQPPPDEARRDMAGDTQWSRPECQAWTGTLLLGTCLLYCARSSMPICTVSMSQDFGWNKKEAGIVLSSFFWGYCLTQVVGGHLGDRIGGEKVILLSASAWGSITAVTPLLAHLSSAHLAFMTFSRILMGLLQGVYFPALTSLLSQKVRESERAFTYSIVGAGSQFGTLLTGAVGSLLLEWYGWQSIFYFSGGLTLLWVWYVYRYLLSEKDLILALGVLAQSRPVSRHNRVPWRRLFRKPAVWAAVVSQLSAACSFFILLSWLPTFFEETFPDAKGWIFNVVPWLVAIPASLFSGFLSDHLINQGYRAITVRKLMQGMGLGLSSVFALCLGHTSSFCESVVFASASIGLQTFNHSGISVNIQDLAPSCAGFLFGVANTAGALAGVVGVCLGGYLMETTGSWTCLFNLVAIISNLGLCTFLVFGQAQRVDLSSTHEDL

VGLUT2 [2] = biological target: T1, VGLUT2; test: Val-evoked [3H]L-glutamate uptake by proteoliposomes, […] min
VGAT = biological target: T3, VGAT (Rattus norvegicus, UniProt O35458); test: GABA uptake by proteoliposomes
T3 sequence (O35458 1-525): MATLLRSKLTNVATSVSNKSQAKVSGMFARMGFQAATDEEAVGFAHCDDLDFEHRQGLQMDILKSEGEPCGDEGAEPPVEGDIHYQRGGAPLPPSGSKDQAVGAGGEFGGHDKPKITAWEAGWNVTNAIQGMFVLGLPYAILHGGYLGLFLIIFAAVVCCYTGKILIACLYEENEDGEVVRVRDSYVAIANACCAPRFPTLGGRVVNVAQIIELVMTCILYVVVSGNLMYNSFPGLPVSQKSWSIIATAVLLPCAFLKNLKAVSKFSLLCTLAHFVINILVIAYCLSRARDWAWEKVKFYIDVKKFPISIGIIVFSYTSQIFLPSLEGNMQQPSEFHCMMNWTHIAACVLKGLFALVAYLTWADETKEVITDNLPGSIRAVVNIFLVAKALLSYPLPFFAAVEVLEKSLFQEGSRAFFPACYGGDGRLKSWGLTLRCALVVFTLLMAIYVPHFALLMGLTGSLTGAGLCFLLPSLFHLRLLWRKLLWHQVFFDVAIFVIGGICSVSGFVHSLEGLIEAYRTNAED

VMAT2 = VMAT2 (Rattus norvegicus, UniProt Q01827); test: pH-driven [3H]serotonin uptake by proteoliposomes; details: 10 mM Cl-, 10 uM serotonin, pH 7.0 outside; inactive
VGLUT2 [3] = biological target: T1, VGLUT2; test: Val-evoked [3H]L-glutamate uptake by proteoliposomes, […] min; details: 10 mM Cl-, pH 7.0, 27 C

Sequence of VMAT2 (Q01827 whole entry): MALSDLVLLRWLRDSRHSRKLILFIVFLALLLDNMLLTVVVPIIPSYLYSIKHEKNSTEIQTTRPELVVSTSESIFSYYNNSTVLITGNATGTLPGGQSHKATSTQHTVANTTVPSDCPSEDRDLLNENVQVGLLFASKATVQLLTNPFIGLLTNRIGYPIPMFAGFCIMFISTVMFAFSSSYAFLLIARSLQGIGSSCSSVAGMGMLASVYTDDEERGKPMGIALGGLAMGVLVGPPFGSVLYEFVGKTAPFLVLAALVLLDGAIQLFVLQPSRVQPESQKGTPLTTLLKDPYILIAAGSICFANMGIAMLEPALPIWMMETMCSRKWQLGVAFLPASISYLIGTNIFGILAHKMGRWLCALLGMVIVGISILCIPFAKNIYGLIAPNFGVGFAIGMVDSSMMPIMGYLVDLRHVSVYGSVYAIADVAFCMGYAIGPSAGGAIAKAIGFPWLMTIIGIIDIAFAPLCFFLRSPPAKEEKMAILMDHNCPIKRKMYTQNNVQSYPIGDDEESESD

`CC(=O)C(=O)O` [pyruvate] was tested, and the dose-dependent inhibition (VGLUT2 [1]) was “pyruvate, an intermediate in the glycolytic pathway also inhibited glutamate transport”.

In the case of `CC(=O)CC(=O)O` [acetoacetate], the dose-dependent inhibition (VNUT) is reported as “uptake of ATP by VNUT was similarly inhibited by acetoacetate”, the IC50 (VGLUT2 [2]) is reported as 200 µM and the IC50 (VGAT) is reported as over 5000 µM. For the same compound, the “pH-driven [3H]serotonin uptake by proteoliposomes” value (VMAT2) was “partially purified VMAT2 was found to be entirely independent of Cl^− and acetoacetate”.

With `Cc1cc(-c2ccc(/N=N/c3ccc4c(S(=O)(=O)O)cc(S(=O)(=O)O)c(N)c4c3O)c(C)c2)ccc1/N=N/c1ccc2c(S(=O)(=O)O)cc(S(=O)(=O)O)c(N)c2c1O` [Evans blue] the “Val-evoked [3H]L-glutamate uptake by proteoliposomes, 1 min” value (VGLUT2 [3]) was “sensitivity to Evans blue and diisothiocyanostilbene disulfonic acid (DIDS)”.

`C[C@@H](O)CC(=O)O` [3-hydroxybutyrate] was tested, and the dose-dependent inhibition (VGLUT2 [1]) was “ketone bodies (acetoacetate and 3-hydroxybutyrate) inhibited glutamate transport”.
